Assay results taken from ChEMBL document CHEMBL3864167, “Structure-Activity Relationship, Drug Metabolism and Pharmacokinetics Properties Optimization, and in Vivo Studies of New Brain Penetrant Triple T-Type Calcium Channel Blockers” (J Med Chem, 2016).
Converted amounts (≈) assume the structure as drawn.

Legend:
[1] = Solubility of the compound at pH 7; assay type: physicochemical; details: buffer
[2] = biological target: Voltage-dependent T-type calcium channel subunit alpha-1G (Homo sapiens, UniProt O43497); assay: Channel blocking activity at recombinant human CaV 3.1 channel expressed in HEK293 cells assessed as inhibition of Ca2+ flux preincubated for 3 mins followed by CaCl2 addition by fluo-4 dye-based FLIPR assay; assay type: cell-based
[3] = biological target: Voltage-dependent T-type calcium channel subunit alpha-1H (Homo sapiens, UniProt O95180); assay: Channel blocking activity at recombinant human CaV 3.2 channel expressed in HEK293 cells assessed as inhibition of Ca2+ flux preincubated for 3 mins followed by CaCl2 addition by fluo-4 dye-based FLIPR assay; assay type: cell-based
[4] = biological target: Voltage-dependent T-type calcium channel subunit alpha-1I (Homo sapiens, UniProt Q9P0X4); assay: Channel blocking activity at recombinant human CaV 3.3 channel expressed in HEK293 cells assessed as inhibition of Ca2+ flux preincubated for 3 mins followed by CaCl2 addition by fluo-4 dye-based FLIPR assay; assay type: cell-based
[5] = Intrinsic clearance in human liver microsomes at 1 uM up to 15 mins in presence of NADPH by LC-MS-MS analysis; assay type: ADME; details: read-out: CLH
[6] = Intrinsic clearance in Wistar rat liver microsomes at 1 uM up to 15 mins in presence of NADPH by LC-MS-MS analysis; assay type: ADME; details: read-out: CLH
[7] = system: MDR1; assay: Apparent permeability from apical side to basolateral side in MDCK1 cells expressing MDR1; assay type: ADME, cell-based, Canis lupus familiaris; details: dog, MDCK-MDR1
[8] = system: MDR1; assay: Apparent permeability from basolateral side to apical side in MDCK1 cells expressing MDR1; assay type: ADME, cell-based, Canis lupus familiaris; details: dog, MDCK-MDR1
[9] = system: MDR1; assay: Efflux ratio for apparent permeability in MDCK1 cells expressing MDR1; assay type: ADME, cell-based, Canis lupus familiaris; details: dog, MDCK-MDR1
[10] = Dissociation constant, pKa of compound; assay type: physicochemical

Voltage-dependent T-type calcium channel subunit alpha-1H, sequence (O95180 whole entry): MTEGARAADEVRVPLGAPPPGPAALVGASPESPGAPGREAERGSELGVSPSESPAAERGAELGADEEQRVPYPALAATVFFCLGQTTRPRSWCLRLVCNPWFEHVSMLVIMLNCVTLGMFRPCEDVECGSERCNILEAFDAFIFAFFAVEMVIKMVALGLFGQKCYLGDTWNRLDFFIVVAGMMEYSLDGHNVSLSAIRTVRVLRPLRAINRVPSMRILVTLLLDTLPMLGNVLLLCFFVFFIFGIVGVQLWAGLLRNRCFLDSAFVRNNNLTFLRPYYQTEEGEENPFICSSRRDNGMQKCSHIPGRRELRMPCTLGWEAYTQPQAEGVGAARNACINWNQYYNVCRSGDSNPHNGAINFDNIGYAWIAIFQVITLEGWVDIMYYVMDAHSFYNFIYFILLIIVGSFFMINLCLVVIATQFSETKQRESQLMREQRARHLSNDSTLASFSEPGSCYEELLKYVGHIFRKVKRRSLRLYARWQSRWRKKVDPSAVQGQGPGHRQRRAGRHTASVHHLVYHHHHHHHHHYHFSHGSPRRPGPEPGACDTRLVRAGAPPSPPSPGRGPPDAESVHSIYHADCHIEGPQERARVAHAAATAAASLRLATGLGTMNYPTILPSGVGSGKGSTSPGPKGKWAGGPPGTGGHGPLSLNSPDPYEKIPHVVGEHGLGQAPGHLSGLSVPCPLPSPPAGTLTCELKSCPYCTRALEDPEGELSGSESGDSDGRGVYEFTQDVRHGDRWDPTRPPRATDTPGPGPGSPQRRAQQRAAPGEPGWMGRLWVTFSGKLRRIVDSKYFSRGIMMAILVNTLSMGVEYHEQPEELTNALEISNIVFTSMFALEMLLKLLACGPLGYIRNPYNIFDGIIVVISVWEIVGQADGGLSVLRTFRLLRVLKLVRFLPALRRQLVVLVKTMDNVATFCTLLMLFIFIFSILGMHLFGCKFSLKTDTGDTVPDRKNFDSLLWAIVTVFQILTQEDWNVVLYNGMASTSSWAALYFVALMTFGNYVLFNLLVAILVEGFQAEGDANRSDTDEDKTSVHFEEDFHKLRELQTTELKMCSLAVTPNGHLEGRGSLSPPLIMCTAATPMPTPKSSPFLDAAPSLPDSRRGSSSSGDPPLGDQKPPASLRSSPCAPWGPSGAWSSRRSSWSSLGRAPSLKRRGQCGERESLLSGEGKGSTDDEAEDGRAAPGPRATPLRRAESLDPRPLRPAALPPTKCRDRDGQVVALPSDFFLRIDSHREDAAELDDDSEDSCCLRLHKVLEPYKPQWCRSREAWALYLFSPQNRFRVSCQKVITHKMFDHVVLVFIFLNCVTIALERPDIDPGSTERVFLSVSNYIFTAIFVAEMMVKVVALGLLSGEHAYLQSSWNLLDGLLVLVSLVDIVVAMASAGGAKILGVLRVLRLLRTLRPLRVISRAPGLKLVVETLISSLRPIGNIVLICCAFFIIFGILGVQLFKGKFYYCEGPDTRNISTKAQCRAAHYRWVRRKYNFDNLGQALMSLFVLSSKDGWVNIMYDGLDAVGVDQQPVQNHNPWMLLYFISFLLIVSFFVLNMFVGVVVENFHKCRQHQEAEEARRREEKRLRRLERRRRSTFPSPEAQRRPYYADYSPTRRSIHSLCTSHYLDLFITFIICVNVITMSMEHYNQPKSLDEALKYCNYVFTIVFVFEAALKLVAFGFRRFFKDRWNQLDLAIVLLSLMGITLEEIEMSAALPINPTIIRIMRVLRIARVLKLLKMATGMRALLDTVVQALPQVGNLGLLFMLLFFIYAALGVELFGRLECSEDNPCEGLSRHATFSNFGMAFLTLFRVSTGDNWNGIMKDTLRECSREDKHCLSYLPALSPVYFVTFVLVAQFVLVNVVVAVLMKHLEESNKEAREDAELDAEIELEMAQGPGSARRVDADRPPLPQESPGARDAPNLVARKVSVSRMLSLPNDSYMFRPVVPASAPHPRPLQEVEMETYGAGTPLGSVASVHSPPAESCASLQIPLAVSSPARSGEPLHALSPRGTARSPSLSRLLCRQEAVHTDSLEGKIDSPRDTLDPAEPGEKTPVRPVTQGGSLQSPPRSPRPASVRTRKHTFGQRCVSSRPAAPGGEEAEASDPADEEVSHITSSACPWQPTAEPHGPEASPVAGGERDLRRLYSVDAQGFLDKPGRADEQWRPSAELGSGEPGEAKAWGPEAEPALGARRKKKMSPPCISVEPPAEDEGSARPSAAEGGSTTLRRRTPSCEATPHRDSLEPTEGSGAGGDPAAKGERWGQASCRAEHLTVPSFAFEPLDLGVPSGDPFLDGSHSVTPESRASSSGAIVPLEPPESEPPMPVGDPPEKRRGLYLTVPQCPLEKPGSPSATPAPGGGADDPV
Voltage-dependent T-type calcium channel subunit alpha-1I, sequence (Q9P0X4 whole entry): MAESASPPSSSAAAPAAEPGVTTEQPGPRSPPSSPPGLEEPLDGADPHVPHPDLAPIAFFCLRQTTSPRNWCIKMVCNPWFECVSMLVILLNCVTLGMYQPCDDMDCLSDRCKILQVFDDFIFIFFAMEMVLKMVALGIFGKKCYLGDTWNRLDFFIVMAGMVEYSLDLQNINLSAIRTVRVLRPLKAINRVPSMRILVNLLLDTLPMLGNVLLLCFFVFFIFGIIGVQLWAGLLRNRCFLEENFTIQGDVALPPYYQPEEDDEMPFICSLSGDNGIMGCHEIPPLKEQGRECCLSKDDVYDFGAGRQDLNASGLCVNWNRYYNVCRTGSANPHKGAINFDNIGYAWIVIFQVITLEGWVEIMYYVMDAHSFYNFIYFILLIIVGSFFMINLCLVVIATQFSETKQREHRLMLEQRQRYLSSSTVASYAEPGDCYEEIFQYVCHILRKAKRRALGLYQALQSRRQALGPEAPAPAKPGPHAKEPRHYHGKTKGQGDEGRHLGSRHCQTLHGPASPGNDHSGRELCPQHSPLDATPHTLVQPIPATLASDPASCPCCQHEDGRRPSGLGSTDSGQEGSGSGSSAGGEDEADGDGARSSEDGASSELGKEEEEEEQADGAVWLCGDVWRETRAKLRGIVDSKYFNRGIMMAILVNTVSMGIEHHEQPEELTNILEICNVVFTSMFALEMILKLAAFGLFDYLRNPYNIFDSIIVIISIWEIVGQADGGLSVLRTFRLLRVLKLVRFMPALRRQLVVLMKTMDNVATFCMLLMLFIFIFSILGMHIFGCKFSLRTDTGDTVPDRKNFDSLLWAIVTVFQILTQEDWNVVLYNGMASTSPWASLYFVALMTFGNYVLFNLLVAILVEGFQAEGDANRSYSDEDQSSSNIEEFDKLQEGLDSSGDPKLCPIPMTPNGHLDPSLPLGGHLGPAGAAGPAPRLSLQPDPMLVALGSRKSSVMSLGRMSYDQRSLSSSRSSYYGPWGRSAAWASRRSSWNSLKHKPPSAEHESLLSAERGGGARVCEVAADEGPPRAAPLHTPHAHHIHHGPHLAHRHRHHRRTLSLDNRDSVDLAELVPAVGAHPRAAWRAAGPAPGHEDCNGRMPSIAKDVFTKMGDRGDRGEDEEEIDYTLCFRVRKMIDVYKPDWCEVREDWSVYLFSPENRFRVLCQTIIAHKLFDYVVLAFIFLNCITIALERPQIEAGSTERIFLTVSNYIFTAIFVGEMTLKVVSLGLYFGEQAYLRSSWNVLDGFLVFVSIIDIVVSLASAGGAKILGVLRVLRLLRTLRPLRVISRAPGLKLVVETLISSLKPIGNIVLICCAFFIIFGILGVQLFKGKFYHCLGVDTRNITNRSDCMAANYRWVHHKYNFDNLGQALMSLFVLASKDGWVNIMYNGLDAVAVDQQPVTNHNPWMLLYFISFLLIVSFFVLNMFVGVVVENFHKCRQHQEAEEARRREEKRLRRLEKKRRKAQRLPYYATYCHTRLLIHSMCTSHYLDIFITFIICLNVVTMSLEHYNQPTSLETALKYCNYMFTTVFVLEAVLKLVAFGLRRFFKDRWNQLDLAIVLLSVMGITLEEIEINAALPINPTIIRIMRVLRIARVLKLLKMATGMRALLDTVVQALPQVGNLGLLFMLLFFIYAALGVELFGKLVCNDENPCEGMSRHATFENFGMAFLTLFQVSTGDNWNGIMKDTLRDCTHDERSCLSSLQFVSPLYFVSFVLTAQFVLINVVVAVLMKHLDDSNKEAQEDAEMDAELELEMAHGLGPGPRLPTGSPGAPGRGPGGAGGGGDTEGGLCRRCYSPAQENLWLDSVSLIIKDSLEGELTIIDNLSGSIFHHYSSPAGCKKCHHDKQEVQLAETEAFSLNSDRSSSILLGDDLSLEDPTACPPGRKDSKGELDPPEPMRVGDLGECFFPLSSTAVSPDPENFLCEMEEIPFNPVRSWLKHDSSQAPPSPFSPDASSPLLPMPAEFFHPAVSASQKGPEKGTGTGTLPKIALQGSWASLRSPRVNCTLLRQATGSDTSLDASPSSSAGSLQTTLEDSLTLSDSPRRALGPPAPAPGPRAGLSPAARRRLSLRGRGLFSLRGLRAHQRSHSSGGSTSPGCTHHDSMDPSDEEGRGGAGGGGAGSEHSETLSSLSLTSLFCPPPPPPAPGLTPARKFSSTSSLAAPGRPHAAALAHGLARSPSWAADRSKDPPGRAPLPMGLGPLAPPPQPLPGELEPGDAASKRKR

| Compound | solubility [1] [µg/mL] | IC50 [2] [µM] | IC50 [3] [µM] | IC50 [4] [µM] | microsomal CLint at 1 µM [5] [µL/min/mg] | microsomal CLint at 1 µM [6] [µL/min/mg] | Papp A→B [7] [×10⁻⁶ cm/s] | Papp B→A [8] [×10⁻⁶ cm/s] | efflux ratio [9] | pKa [10] |
| --- | --- | --- | --- | --- | --- | --- | --- | --- | --- | --- |
| C[C@@H]1CN(CC2CCCCO2)c2ccccc2[C@H](C)N1C(=O)Nc1cccnc1 (mixture of isomers) | 248 | 0.875 | 2.67 | 0.243 | 720 | – | – | – | – | – |
| C[C@@H]1CN(Cc2ccccc2)c2ccccc2CN1C(=O)NCc1ccccc1 (racemic) | – | 0.102 | 0.141 | 0.026 | > 1250 | – | – | – | – | – |
| C[C@@H]1CN(Cc2cccnc2F)c2ccccc2[C@H](C)N1C(=O)NCc1ccccc1 (racemic) | – | 0.053 | 0.049 | 0.01 | > 1250 | – | – | – | – | – |
| C[C@@H]1CN(Cc2ccccc2)c2ncc(Cl)cc2[C@H](C)N1C(=O)NCc1ccccc1 (racemic) | – | 0.078 | 0.068 | 0.046 | 409 | – | – | – | – | – |
| C[C@@H]1CN(CCOC(C)(C)C)c2ccccc2[C@H](C)N1C(=O)Nc1cccnc1 (racemic) | 81 (≈ 204 µM) | 0.108 | 0.091 | 0.023 | 1230 | – | – | – | – | – |
| C[C@@H]1CN(Cc2ccccc2)c2cncc(F)c2[C@H](C)N1C(=O)NCc1ccccc1 (racemic) | – | 0.14 | 0.072 | 0.009 | 185 | – | 26.3 | 61 | 2.3 | 4.2 |
| [2H]C([2H])(c1ccccc1)N1C[C@@H](C)N(C(=O)Nc2cccnc2)[C@@H](C)c2ccncc21 (racemic) | – | 0.441 | 0.815 | 0.148 | 59 | 855 | – | – | – | – |
| C[C@@H]1CN(Cc2ccccc2)c2cnccc2[C@H](C)N1C(=O)Nc1cccnc1 (racemic) | – | 0.36 | 0.86 | 0.306 | 93 | 562 | – | – | – | – |
| [2H]C([2H])(c1ccccc1)N1C[C@@H](C)N(C(=O)NCc2ccccc2)[C@@H](C)c2ccncc21 (racemic) | – | 0.26 | 0.23 | 0.015 | 186 | > 1250 | – | – | – | – |
| COc1ccc2c(c1)N(Cc1ccccc1)C[C@@H](C)N(C(=O)Nc1cccnc1)[C@H]2C (racemic) | – | 0.627 | 1.6 | 0.61 | 649 | – | – | – | – | – |
| CCN1C[C@@H](C)N(C(=O)NCc2ccccc2)[C@@H](C)c2ccccc21 (racemic) | – | 0.754 | 0.922 | 0.139 | > 1250 | – | – | – | – | – |
| C[C@@H]1CN(Cc2ccccc2)c2ccccc2C(=O)N1CCc1ccccc1 (racemic) | – | 0.676 | 0.618 | 1.59 | > 1250 | – | – | – | – | – |
| C[C@H]1c2ccccc2N(Cc2ccccc2)CCN1C(=O)NCc1ccccc1 (racemic) | – | 0.193 | 0.241 | 0.164 | > 1250 | – | – | – | – | – |
| C[C@@H]1CNc2ccccc2[C@H](C)N1C(=O)NCc1ccccc1 (racemic) | – | > 10 | > 10.7 | > 8.61 | 59 | – | – | – | – | – |
| C[C@H]1CN(Cc2ccccc2)c2ccccc2[C@H](C)N1C(=O)NCc1ccccc1 (racemic) | – | 0.279 | 0.34 | 0.095 | > 1250 | – | – | – | – | – |
| C[C@@H]1CN(Cc2ccccc2)c2cc(OCC(F)(F)F)ccc2[C@H](C)N1C(=O)Nc1cccnc1 (racemic) | – | 0.187 | 0.79 | 3.56 | > 1250 | – | – | – | – | – |
| C[C@@H]1CN(Cc2ccccc2)c2cc(C#N)ccc2[C@H](C)N1C(=O)Nc1cccnc1 (racemic) | – | 0.582 | 0.86 | 0.308 | 418 | – | – | – | – | – |
| C[C@@H]1CN(Cc2ccccc2)c2cnccc2[C@H](C)N1C(=O)CCc1ccc(F)cc1 (racemic) | – | 0.196 | 0.225 | 0.025 | 907 | > 1250 | – | – | – | – |
| COc1ccc(CNC(=O)N2[C@H](C)CN(Cc3ccccc3)c3cnccc3[C@@H]2C)cc1 (racemic) | – | 0.079 | 0.048 | 0.012 | 189 | 1140 | – | – | – | – |
| C[C@@H]1CN(Cc2ccccc2)c2c(F)cccc2[C@H](C)N1C(=O)Nc1cccnc1 (racemic) | – | 0.178 | 0.205 | 0.017 | 720 | – | – | – | – | – |

Now those with a lower IC50 [2], led by results:

| solubility [1] [µg/mL] | IC50 [2] [µM] | IC50 [3] [µM] | IC50 [4] [µM] | microsomal CLint at 1 µM [5] [µL/min/mg] | microsomal CLint at 1 µM [6] [µL/min/mg] | Papp A→B [7] [×10⁻⁶ cm/s] | Papp B→A [8] [×10⁻⁶ cm/s] | efflux ratio [9] | pKa [10] | Compound |
| --- | --- | --- | --- | --- | --- | --- | --- | --- | --- | --- |
| 21 to 39 (≈ 55.3 to 103 µM) | 0.026 | 0.058 | 0.009 | > 1250 | – | – | – | – | – | C[C@@H]1CN(Cc2ccccc2)c2ccccc2[C@H](C)N1C(=O)N1CCOCC1 (racemic) |
| – | 0.013 | 0.024 | 0.011 | 119 | 447 | – | – | – | – | COc1ccc(CNC(=O)N2[C@H](C)CN(Cc3ccc(C(F)(F)F)o3)c3cnccc3[C@@H]2C)cc1 (racemic) |
| – | 0.023 | 0.091 | 0.012 | > 1250 | – | – | – | – | – | CC(C)CCN1C[C@@H](C)N(C(=O)Nc2cccnc2)[C@@H](C)c2ccccc21 (racemic) |
| – | 0.031 | 0.038 | 0.01 | > 1250 | – | – | – | – | – | C[C@@H]1CN(Cc2ccccc2)c2ccccc2[C@H](C)N1C(=O)CCc1cccnc1 (racemic) |
| – | 0.037 | 0.044 | 0.01 | 247 | 1180 | – | – | – | – | C[C@@H]1CN(Cc2ccc(C(F)(F)F)o2)c2cnccc2[C@H](C)N1C(=O)NCc1ccccc1 (racemic) |
| – | 0.007 | 0.013 | 0.006 | > 1250 | – | – | – | – | – | C[C@@H]1CN(Cc2ccc(C(F)(F)F)o2)c2ccccc2[C@H](C)N1C(=O)NCc1ccccc1 (racemic) |
| 148 (≈ 405 µM) | 0.026 | 0.061 | 0.012 | 539 | – | – | – | – | – | C[C@@H]1CN(Cc2ccccc2)c2ccccc2[C@H](C)N1C(=O)NC1COC1 (racemic) |
| – | 0.045 | 0.066 | 0.052 | 357 | – | – | – | – | – | CC(C)CCN1C[C@@H](C)N(C(=O)CCc2cccnc2)[C@@H](C)c2c(F)cccc21 (racemic) |
| – | 0.029 | 0.062 | 0.013 | 412 | – | – | – | – | – | CC(C)CCN1C[C@@H](C)N(C(=O)CCc2cccnc2)[C@@H](C)c2ccccc21 (racemic) |
| – | 0.02 | 0.052 | 0.01 | 628 | – | – | – | – | – | C[C@@H]1CN(Cc2ccccc2)c2cccc(F)c2[C@H](C)N1C(=O)Nc1cccnc1 (racemic) |
| – | 0.036 | 0.051 | 0.007 | > 1250 | – | – | – | – | – | C[C@@H]1CN(Cc2ccccc2)c2ccccc2[C@H](C)N1C(=O)CN1CCOCC1 (racemic) |
| – | 0.023 | 0.062 | 0.014 | 1150 | – | – | – | – | – | C[C@@H]1CN(CC2CCCC2)c2ccccc2[C@H](C)N1C(=O)Nc1cccnc1 (racemic) |
| – | 0.013 | 0.018 | 0.006 | > 1250 | – | – | – | – | – | C[C@@H]1CN(Cc2ccc(F)c(F)c2)c2ccccc2[C@H](C)N1C(=O)Nc1cccnc1 (racemic) |
| – | 0.04 | 0.03 | 0.013 | 332 | – | – | – | – | – | C[C@@H]1CN(Cc2cnc(C(F)(F)F)s2)c2ccccc2[C@H](C)N1C(=O)CCc1cccnc1 (racemic) |
| – | 0.018 | 0.028 | 0.033 | 1240 | – | – | – | – | – | Cc1ccc2c(n1)N(Cc1ccccc1)C[C@@H](C)N(C(=O)NCc1ccccc1)[C@H]2C (racemic) |
| – | 0.047 | 0.095 | 0.031 | 179 | > 1250 | – | – | – | – | C[C@@H]1CN(Cc2ccccc2F)c2cnccc2[C@H](C)N1C(=O)NCc1ccccc1 (racemic) |
| – | 0.012 | 0.022 | 0.008 | 873 | – | – | – | – | – | C[C@@H]1CN(Cc2ccccc2)c2cc(F)cc(F)c2[C@H](C)N1C(=O)Nc1cccnc1 (racemic) |
| – | 0.006 | 0.012 | 0.004 | > 1250 | – | – | – | – | – | C[C@@H]1CN(Cc2ccccc2)c2cc(F)ccc2[C@H](C)N1C(=O)Nc1cccnc1 (racemic) |
| 21 to 39 (≈ 54.3 to 101 µM) | 0.042 | 0.061 | 0.014 | > 1250 | – | – | – | – | – | C[C@@H]1CN(Cc2ccccc2)c2ccccc2[C@H](C)N1C(=O)Nc1cccnc1 (racemic) |
| – | 0.008 | 0.014 | 0.006 | > 1250 | – | – | – | – | – | COc1ccc(CNC(=O)N2[C@H](C)CN(Cc3ccccc3)c3ccccc3[C@@H]2C)cc1 (racemic) |
| – | 0.016 | 0.036 | 0.022 | 1000 | – | – | – | – | – | C[C@@H]1CN(Cc2ccccc2)c2nc(Cl)ccc2[C@H](C)N1C(=O)NCc1ccccc1 (racemic) |
| 21 to 39 (≈ 53.6 to 99.6 µM) | 0.034 | 0.055 | 0.006 | > 1250 | – | – | – | – | – | C[C@@H]1CN(Cc2ccccc2)c2ccccc2[C@H](C)N1C(=O)Cc1cncs1 (racemic) |
